The record followed here is US11434242B2, “Dopamine-b-hydroxylase inhibitors” (BIAL-PORTELA & Cª, S.A., priority 2017, dated 2022).

The assay addresses T1, Dopamine beta hydroxylase (Homo sapiens, UniProt P09172).
T1 construct: 125 μl of plasma; tissue Instituto Português do Sangue Transplantação; host or cells: human plasma from healthy donors
T1 sequence (P09172 40-617 limits assumed): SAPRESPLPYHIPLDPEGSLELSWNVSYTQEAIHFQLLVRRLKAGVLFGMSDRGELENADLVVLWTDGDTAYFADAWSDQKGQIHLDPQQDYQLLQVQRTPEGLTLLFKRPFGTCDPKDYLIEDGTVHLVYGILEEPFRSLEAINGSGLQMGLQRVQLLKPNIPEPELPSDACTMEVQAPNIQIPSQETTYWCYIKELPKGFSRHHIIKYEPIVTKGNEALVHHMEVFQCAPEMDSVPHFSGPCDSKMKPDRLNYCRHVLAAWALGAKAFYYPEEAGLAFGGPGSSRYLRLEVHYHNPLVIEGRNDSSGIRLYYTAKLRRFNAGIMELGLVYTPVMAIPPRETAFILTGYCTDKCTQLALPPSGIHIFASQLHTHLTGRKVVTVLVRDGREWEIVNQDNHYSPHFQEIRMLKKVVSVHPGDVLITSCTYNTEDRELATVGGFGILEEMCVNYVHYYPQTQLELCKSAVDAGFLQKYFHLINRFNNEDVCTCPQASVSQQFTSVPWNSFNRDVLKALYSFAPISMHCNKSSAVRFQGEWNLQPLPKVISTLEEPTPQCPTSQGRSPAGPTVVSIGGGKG
The assay can be described thus: Dopamine beta hydroxylase activity in human plasma. It is filed as biochemical. A digest of the protocol:
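Healthy-donor human plasma pre-incubated 10 min at 37° C with compound at final 10, 100 or 1000 nM in pH 5.0 acetate buffer with ascorbate, fumarate, pargyline, N-ethylmaleimide, catalase and copper sulfate. Tyramine substrate then added for 45 min; octopamine formed was isolated by SCX cartridge, periodate-converted and read at 330 nm; activity given as % control.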

SMILES strings stand for the structures. Where a name gives a salt, the structure may show the parent alone. Marks after values point to notes of the source that are not given here.

As to `F.Fc1ccc(Br)cc1[C@]12C[C@H]1c1c(CCNc3ccccn3)[nH]c(=S)n1C2` [Example 192, (5aS,6aR)-5a-(5-bromo-2-fluorophenyl)-1-(2-(pyridin-2-ylamino)ethyl)-5,5a,6,6a-tetrahydrocyclopropa[3,4]pyrrolo[1,2-c]imidazole-3(2H)-thione hydrofluoride], the “Plasma (0.01 μM), activity in % of control” value (inhibitor 0.01 μM) is listed as 73.4 % of control. Besides, under “inhibitor 0.1 μM”, the “Plasma (0.1 μM), activity in % of control” value is recorded as 12.1 % of control.

Regarding `CNCCc1[nH]c(=S)n2c1C[C@@H](c1c(F)ccc(Cl)c1F)C2.Cl` [Example 193, (S)-6-(3-chloro-2,6-difluorophenyl)-1-(2-(methylamino)ethyl)-2,5,6,7-tetrahydro-3H-pyrrolo[1,2-c]imidazole-3-thione Hydrochloride], where the note is “inhibitor 0.01 μM”, the “Plasma (0.01 μM), activity in % of control” value is 86.0 % of control. Under “inhibitor 0.1 μM”, the “Plasma (0.1 μM), activity in % of control” value is 46.3 % of control.

For `F.Fc1ccc(Cl)cc1[C@]12C[C@H]1c1c(CCN3CCCCC3)[nH]c(=S)n1C2` [Example 194, (5aS,6aR)-5a-(5-chloro-2-fluorophenyl)-1-(2-(piperidin-1-yl)ethyl)-5,5a,6,6a-tetrahydrocyclopropa[3,4]pyrrolo[1,2-c]imidazole-3(2H)-thione Hydrofluoride], for the setting “inhibitor 0.01 μM”, the “Plasma (0.01 μM), activity in % of control” value is given as 82.9 % of control. In addition, under “inhibitor 0.1 μM”, the “Plasma (0.1 μM), activity in % of control” value is given as 62.4 % of control.

For `Cl.Fc1ccc(Cl)c(F)c1[C@@H]1Cc2c(CCN3CCOCC3)[nH]c(=S)n2C1` [Example 196, (S)-6-(3-chloro-2,6-difluorophenyl)-1-(2-morpholinoethyl)-2,5,6,7-tetrahydro-3H-pyrrolo[1,2-c]imidazole-3-thione Hydrochloride], for the setting “inhibitor 0.01 μM”, the “Plasma (0.01 μM), activity in % of control” value is 102.2 % of control. The “Plasma (0.1 μM), activity in % of control” value (inhibitor 0.1 μM) was 68.6 % of control.

For `Fc1ccc(Cl)cc1[C@]12C[C@H]1c1c(CCNc3cccnc3)[nH]c(=S)n1C2` [Example 197, (5aS,6aR)-5a-(5-chloro-2-fluorophenyl)-1-(2-(pyridin-3-ylamino)ethyl)-5,5a,6,6a-tetrahydrocyclopropa[3,4]pyrrolo[1,2-c]imidazole-3(2H)-thione], the “Plasma (0.01 μM), activity in % of control” value (inhibitor 0.01 μM) was 75.9 % of control. Besides, for the setting “inhibitor 0.1 μM”, the “Plasma (0.1 μM), activity in % of control” value is 29.4 % of control.

With `Cl.Fc1cc(F)c(F)c([C@H]2Cc3c(CCN4CCCC4)[nH]c(=S)n3C2)c1F` [Example 198, (R)-1-(2-(pyrrolidin-1-yl)ethyl)-6-(2,3,5,6-tetrafluorophenyl)-2,5,6,7-tetrahydro-3H-pyrrolo[1,2-c]imidazole-3-thione Hydrochloride], the “Plasma (0.01 μM), activity in % of control” value (inhibitor 0.01 μM) was 52.2 % of control. Under “inhibitor 0.01 μM, re-tested under the same experimental conditions, asterisked data believed to be correct”, the “Plasma (0.01 μM), activity in % of control, re-test (asterisked)” value was 84.5* % of control. Moreover, the “Plasma (0.1 μM), activity in % of control” value (inhibitor 0.1 μM) is listed as 11.1 % of control. Moreover, the “Plasma (0.1 μM), activity in % of control, re-test (asterisked)” value (inhibitor 0.1 μM, re-tested under the same experimental conditions, asterisked data believed to be correct) is reported as 99.1* % of control.

For `CCOC(=O)C(Cc1[nH]c(=S)n2c1C[C@H](c1c(F)c(F)cc(F)c1F)C2)C(=O)OCC` [Example 200, (R)-diethyl 2-((6-(2,3,5,6-tetrafluorophenyl)-3-thioxo-3,5,6,7-tetrahydro-2H-pyrrolo[1,2-c]imidazol-1-yl)methyl)malonate], under “inhibitor 0.01 μM”, the “Plasma (0.01 μM), activity in % of control” value was 85.2 % of control. Moreover, the “Plasma (0.1 μM), activity in % of control” value (inhibitor 0.1 μM) is 66.4 % of control.

With `O=C(O)C(Cc1[nH]c(=S)n2c1C[C@H](c1c(F)c(F)cc(F)c1F)C2)C(=O)O` [Example 201, (R)-2-((6-(2,3,5,6-tetrafluorophenyl)-3-thioxo-2,5,6,7-tetrahydro-3H-pyrrolo[1,2-c]imidazol-1-yl)methyl)malonic Acid], the “Plasma (0.01 μM), activity in % of control” value (inhibitor 0.01 μM) was 62.4 % of control. Under “inhibitor 0.1 μM”, the “Plasma (0.1 μM), activity in % of control” value was 13.3 % of control.

With `O=C(O)CCc1[nH]c(=S)n2c1C[C@H](c1c(F)c(F)cc(F)c1F)C2` [Example 202, (R)-3-(6-(2,3,5,6-tetrafluorophenyl)-3-thioxo-2,5,6,7-tetrahydro-3H-pyrrolo[1,2-c]imidazol-1-yl)propanoic Acid], the “Plasma (0.01 μM), activity in % of control” value (inhibitor 0.01 μM) was 67.7 % of control. Also, the “Plasma (0.1 μM), activity in % of control” value (inhibitor 0.1 μM) is recorded as 22.7 % of control.

Turning to `O=C(CCc1[nH]c(=S)n2c1C[C@H](c1c(F)c(F)cc(F)c1F)C2)NCC1CC1` [Example 203, (R)—N-(cyclopropylmethyl)-3-(6-(2,3,5,6-tetrafluorophenyl)-3-thioxo-2,5,6,7-tetrahydro-3H-pyrrolo[1,2-c]imidazol-1-yl)propanamide], under “inhibitor 0.01 μM”, the “Plasma (0.01 μM), activity in % of control” value is 95.8 % of control. Moreover, for the setting “inhibitor 0.1 μM”, the “Plasma (0.1 μM), activity in % of control” value was 75.8 % of control.

Regarding `O=C(CCc1[nH]c(=S)n2c1C[C@H](c1c(F)c(F)cc(F)c1F)C2)N1CCCC1` [Example 204, (R)-1-(pyrrolidin-1-yl)-3-(6-(2,3,5,6-tetrafluorophenyl)-3-thioxo-2,5,6,7-tetrahydro-3H-pyrrolo[1,2-c]imidazol-1-yl)propan-1-one], the “Plasma (0.01 μM), activity in % of control” value (inhibitor 0.01 μM) is 26.5 % of control. Moreover, the “Plasma (0.1 μM), activity in % of control” value (inhibitor 0.1 μM) is recorded as 1.1 % of control.

In the case of `O=C(CCc1[nH]c(=S)n2c1C[C@H](c1c(F)c(F)cc(F)c1F)C2)N1CCOCC1` [Example 205, (R)-1-morpholino-3-(6-(2,3,5,6-tetrafluorophenyl)-3-thioxo-2,5,6,7-tetrahydro-3H-pyrrolo[1,2-c]imidazol-1-yl)propan-1-one], for the setting “inhibitor 0.01 μM”, the “Plasma (0.01 μM), activity in % of control” value is 76.9 % of control. The “Plasma (0.1 μM), activity in % of control” value (inhibitor 0.1 μM) was 18.2 % of control.

Take `O=C(CCc1[nH]c(=S)n2c1C[C@H](c1c(F)c(F)cc(F)c1F)C2)N1CCC(F)(F)CC1` [Example 206, (R)-1-(4,4-difluoropiperidin-1-yl)-3-(6-(2,3,5,6-tetrafluorophenyl)-3-thioxo-2,5,6,7-tetrahydro-3H-pyrrolo[1,2-c]imidazol-1-yl)propan-1-one]: the “Plasma (0.01 μM), activity in % of control” value (inhibitor 0.01 μM) is recorded as 22.4 % of control. Under “inhibitor 0.1 μM”, the “Plasma (0.1 μM), activity in % of control” value is on record as 8.7 % of control.

On to `O=C(CCc1[nH]c(=S)n2c1C[C@H](c1c(F)c(F)cc(F)c1F)C2)N1CCCCC1` [Example 207, (R)-1-(piperidin-1-yl)-3-(6-(2,3,5,6-tetrafluorophenyl)-3-thioxo-2,5,6,7-tetrahydro-3H-pyrrolo[1,2-c]imidazol-1-yl)propan-1-one], for which, under “inhibitor 0.01 μM”, the “Plasma (0.01 μM), activity in % of control” value is 76.6 % of control. The “Plasma (0.1 μM), activity in % of control” value (inhibitor 0.1 μM) is recorded as 30.2 % of control.

Take `CC1CCN(C(=O)CCc2[nH]c(=S)n3c2C[C@H](c2c(F)c(F)cc(F)c2F)C3)CC1` [Example 208, (R)-1-(4-methylpiperidin-1-yl)-3-(6-(2,3,5,6-tetrafluorophenyl)-3-thioxo-2,5,6,7-tetrahydro-3H-pyrrolo[1,2-c]imidazol-1-yl)propan-1-one]: the “Plasma (0.01 μM), activity in % of control” value (inhibitor 0.01 μM) was 62.0 % of control. Also, the “Plasma (0.1 μM), activity in % of control” value (inhibitor 0.1 μM) was 13.3 % of control.

As for `Fc1cc(F)c(F)c([C@H]2Cc3c(CN4CCOCC4)[nH]c(=S)n3C2)c1F` [Example 209, (R)-1-(morpholinomethyl)-6-(2,3,5,6-tetrafluorophenyl)-6,7-dihydro-2H-pyrrolo[1,2-c]imidazole-3(5H)-thione Hydrochloride], the “Plasma (0.01 μM), activity in % of control” value (inhibitor 0.01 μM) is given as 87.6 % of control. Further, the “Plasma (0.1 μM), activity in % of control” value (inhibitor 0.1 μM) is 60.3 % of control.

Consider `Cl.Fc1cc(F)c(F)c([C@H]2Cc3c(CN4CCCC4)[nH]c(=S)n3C2)c1F` [Example 210, (R)-1-(pyrrolidin-1-ylmethyl)-6-(2,3,5,6-tetrafluorophenyl)-2,5,6,7-tetrahydro-3H-pyrrolo[1,2-c]imidazole-3-thione hydrochloride], for which the “Plasma (0.01 μM), activity in % of control” value (inhibitor 0.01 μM) was 94.6 % of control. Further, the “Plasma (0.1 μM), activity in % of control” value (inhibitor 0.1 μM) is recorded as 73.5 % of control.

Regarding `CN(CCO)Cc1[nH]c(=S)n2c1C[C@H](c1c(F)c(F)cc(F)c1F)C2.Cl` [Example 211, (R)-1-(((2-hydroxyethyl)(methyl)amino)methyl)-6-(2,3,5,6-tetrafluorophenyl)-2,5,6,7-tetrahydro-3H-pyrrolo[1,2-c]imidazole-3-thione hydrochloride], for the setting “inhibitor 0.01 μM”, the “Plasma (0.01 μM), activity in % of control” value is given as 104.9 % of control. Further, the “Plasma (0.1 μM), activity in % of control” value (inhibitor 0.1 μM) is reported as 94.8 % of control.

On to `Fc1cc(F)c(F)c([C@H]2Cc3c(CCc4cccnc4)[nH]c(=S)n3C2)c1F` [Example 212, (R)-1-(2-(pyridin-3-yl)ethyl)-6-(2,3,5,6-tetrafluorophenyl)-6,7-dihydro-2H-pyrrolo[1,2-c]imidazole-3(5H)-thione], for which the “Plasma (0.01 μM), activity in % of control” value (inhibitor 0.01 μM) is on record as 86.5 % of control. The “Plasma (0.1 μM), activity in % of control” value (inhibitor 0.1 μM) is listed as 46 % of control.

Turning to `Fc1cc(F)c(F)c([C@H]2Cc3c(CCc4ccccn4)[nH]c(=S)n3C2)c1F` [Example 213, (R)-1-(2-(pyridin-2-yl)ethyl)-6-(2,3,5,6-tetrafluorophenyl)-2,5,6,7-tetrahydro-3H-pyrrolo[1,2-c]imidazole-3-thione], for the setting “inhibitor 0.01 μM”, the “Plasma (0.01 μM), activity in % of control” value was 105.9 % of control. In addition, the “Plasma (0.1 μM), activity in % of control” value (inhibitor 0.1 μM) is 66.6 % of control.
